Measurements: patent US20240130988A1, “Use of stilbene compounds in the preparation of anti-tumor drugs” (Guangzhou AnHao Pharmaceutical Technology CO., LTD., priority 2022, published 2024)

Tests used:
[1] = tested on: Lewis non-small cell lung cancer; assay: Compound 11 combined with PD-L1, Lewis non-small cell lung cancer model in mice; format: in vivo, C57BL/6 mice; settings: ip: PD-L1 10 mg/kg, compound 11 200 mg/kg, combination 10 + 200
Description: Experimental method: The model of transplant tumor in C57BL/6 mice was established by subcutaneously inoculating Lewis non-small cell lung cancer cell lines into the armpits of C57BL/6 mice. Cells were inoculated in an amount of 1×10^6, and after formation of the transplanted tumors by inoculation, the cells were passed 3 generations in C57BL/6 mice before use. The vigorous growth of tumor tissue was cut into approximate 1.5 mm^3, and homogenized under sterile conditions, to prepare 1×10^7/mL of cell suspension. 0.1 mL of cell suspension was subcutaneously inoculated into the right armpit of C57BL/6 mice. For transplanted tumors in C57BL/6 mice, the diameter was measured with vernier caliper. After the tumor grew to 100 mm^3, the animals were randomly divided into groups, with 6 mice in each group. […] The measurement frequency of tumor diameter was once every three days. The dosage by volume was 0.1 mL/20 g. The mice in the negative control group were given an equal amount of physiological saline by intravenous injection.
The effect of combined medicaments was evaluated based on the Q value calculated by Jin's formula: […]
(§1) Ea+b represents the tumor inhibitory rate of the combined medicaments, while Ea and Eb represent the tumor inhibitory rates of medicament A and medicament B, respectively.

B16 mouse melanoma = assay: Lung metastasis model of B16 mouse melanoma; format: in vivo, C57BL/6 mice
Description: Under sterile conditions, […] mouse melanoma cells in logarithmic growth period were cultured, and then prepared as 2.8×10^5/mL of cell suspension, which was inoculated into the tail vein of C57BL/6 mice at 0.2 mL/mouse. Compound 6 was administered to the mice on the next day. Three weeks later, each animal was sacrificed, and the lungs of mice in each group were dissected. The number of metastatic colonies in the lungs of mice was detected and counted, and the average number of tumor colonies in each group was used to calculate the tumor inhibitory rate according to the formula: Tumor inhibitory rate %=[(The average number of colonies in the control group−the average number of colonies in the treatment group)/The average number of colonies in the control group]×100%, The results are shown in Table 16.

[2] = tested on: human lung cancer 95D and human liver cancer Bel7404; assay: In vivo vascular necrosis of tumors, PCNA immunohistochemistry; design: species or system nude mice; settings: 400 mg/kg
[3] = tested on: ocular surface neovascularization; assay: Neovascularization of ocular surface in rats (NaOH cornea model); format: in vivo, SD rats; settings: 50 μL/eye, 3 times/day, 10 days
Description: Four SD rats, regardless of gender, were subjected to single eye modeling, with a total of four eye models. One eye was used as a blank control (untreated group), one eye was used as a model control, one eye was used as treatment group 1, and one eye was used as treatment group 2.
The rats were anesthetized with pentobarbital sodium (25-30 mg/(kg, intraperitoneal injection), and two drops of oxybuprocaine hydrochloride eye drops were administrated to both eyes for ocular surface anesthesia. 30 μL of NaOH solution (1 mol/L) was placed with a pipette on a dry filter paper with a diameter of approximate 3 mm for 10 seconds. The moistened circular filter paper was gently applied to the center of the cornea (covering the corneoscleral margin) of the model eye, and a tight fit was kept for suitable time. The filter paper was removed, and then physiological saline was used to wash the eye, which was rinsed with a needle for 1 minute. After operation, ofloxacin eye ointment was applied to prevent infection (3 times/day, for 5 days).
On the 5th day (D5), neovascularization began to appear, and D5 was the first day of administrating the test compound (d1). Three eye drops were administered daily for 10 consecutive days (d10). […] After completion of the experiment, the rats were euthanized.
Blank control group (untreated group): no any treatment, no modeling, no administration. […]

[4] = tested on: human gastric cancer SGC7901; assay: Compound 6 combined with paclitaxel, human gastric cancer SGC7901 xenograft in nude mice; format: in vivo; settings: paclitaxel 10 mg/kg iv, compound 6 200 mg/kg ip, combination 10 + 200
Description: Experimental method: The model of human gastric cancer SGC7901 transplant tumor in nude mice was established by subcutaneously inoculating human gastric cancer SGC7901 cell lines into the armpits of nude mice. Cells were inoculated in an amount of 1×10^6, and after formation of the transplanted tumors by inoculation, the cells were passed 3 generations in nude mice before use. The vigorous growth of tumor tissue was cut into approximate 1.5 mm^3, and homogenized under sterile conditions, to prepare 1×10^7/mL of cell suspension. 0.1 mL of cell suspension was subcutaneously inoculated into the right armpit of nude mice. For transplanted tumors in nude mice, the diameter was measured with vernier caliper. After the tumor grew to 100 mm^3, the animals were randomly divided into groups, with 6 mice in each group. […] The measurement frequency of tumor diameter was once every three days. The dosage by volume was 0.1 mL/20 g. The mice in the negative control group were given an equal amount of physiological saline by intravenous injection. The effect of combined medicaments was evaluated based on the Q value calculated by Jin's formula: […]
as §1

## COc1cc(/C(=C\c2cc(O)c(OC)c(O)c2)C(=O)O)cc(OC)c1OC [Compound 11, (E)-3-(3,5-dihydroxy-4-methoxyphenyl)-2-(3,4,5-trimethoxyphenyl)acrylic acid]
[1]
  RTV (d 18): 7.62 ± 2.28
  Terminal weight: 23.1 ± 0.9 g
  Tumor inhibitory rate %: 48.76%

## COc1ccc(/C=C(/C(=O)O)c2cc(OC)c(OC)c(OC)c2)cc1O [Compound 6, (E)-3-(3-hydroxy-4-methoxyphenyl)-2-(3,4,5-trimethoxyphenyl)acrylic acid]
B16 mouse melanoma; 40 mg/kg iv × 10qod
  Animal weight (g) End: 20.2/25.4 g
  Metastasis inhibitory rate %: 24.11%
  Number of lung tumor colonies χ ± SD: 40.1 ± 9.0
B16 mouse melanoma; 60 mg/kg iv × 10qod
  Animal weight (g) End: 20.1/25.7 g
  Metastasis inhibitory rate %: 29.03%
  Number of lung tumor colonies χ ± SD: 37.5 ± 11.7
B16 mouse melanoma; 80 mg/kg iv × 10qod
  Animal weight (g) End: 19.9/25.7 g
  Metastasis inhibitory rate %: 35.84%
  Number of lung tumor colonies χ ± SD: 33.9 ± 10.8
B16 mouse melanoma; 120 mg/kg iv × 10qod
  Animal weight (g) End: 20.2/25.6 g
  Metastasis inhibitory rate %: 34.14%
  Number of lung tumor colonies χ ± SD: 34.8 ± 13.4
B16 mouse melanoma; 40-120 mg/kg iv × 10qod
  Inhibition of metastasis of B16 mouse melanoma, in words: inhibit the metastasis of B16 mouse melanoma in a dose-dependent manner
[2]; 4 h after oral administration
  Damage to the blood vessels of tumors (PCNA immunohistochemistry): only some vascular endothelial cells proliferated in the tumor tissues
[2]; 24 h after oral administration
  Damage to the blood vessels of tumors (PCNA immunohistochemistry): massive blood flow blockade and necrosis of tumor tissues
[3]; high-dose group, eye drops 25 mg/mL
  Vascularization area: significantly decreased
[3]; treatment groups, eye drops 10 or 25 mg/mL, vs model group
  Neovascularization of the ocular surface: reduced compared to the model group
[4]
  RTV (d 21): 6.21 ± 1.88
  Terminal weight: 22.9 ± 1.2 g
  Tumor inhibitory rate %: 54.07%
